Experimental data reported in US7060714B2, “Fungal strain acremonium sp.MT70646(KCTC 0916BP), novel compounds produced by this strain and their use” (Korea Research Institute of Bioscience and Biotechnology, priority 1999, dated 2006).
Values after ≈ are worked out from the molar mass of the structure shown.

Columns and labels:
Solubility in solvents = type: physicochemical
Excerpt: The results of infrared (IR) absorption spectrum; ^1H-NMR and ^13C-NMR spectrum; and HMBC NMR spectrum analyses are shown in the Tables 2 & 3 and FIGS. 1–3.

[1] = system: human umbilical vein enothelial cell (HUVEC); assay: Angiogenesis: HUVEC tube formation on Matrigel; type: cell-based; conditions: 18 hr, read-out: Inhibitory activity against the angiogenesis (tube formation); for inhibition at 1 µg/mL: 1 μg/mL; for inhibition at 3 µg/mL: 3 μg/mL; for inhibition at 10 µg/mL: 10 μg/mL
Method: After thawing Matrigel on ice, 40 μL of the Matrigel was added into each wells of a 96 well plate and placed for 30 min at 37° C. to solidify the Matrigel. Then, 180 μL of human umbilical vein enothelial cell (HUVEC) suspension (2×10^4 cells) was added made into each well of the solidified Matrigel and incubated for 18 hr in a 5% CO2 atmosphere at 37° C. The degree of tube formation was observed by microscope.

heparinase = target: T1, heparinase (Pedobacter heparinus, UniProt Q05819); assay: Inhibition of heparinase (heparin / antithrombin III / factor Xa chromogenic assay); type: biochemical, Flavobacterium heparinum
T1 construct: the heparinase was isolated from Flavobacterium heparinum; purchased Sigma Co. Ltd. (U.S.A.); host or cells: isolated from Flavobacterium heparinum
T1 sequence (Q05819 22-384): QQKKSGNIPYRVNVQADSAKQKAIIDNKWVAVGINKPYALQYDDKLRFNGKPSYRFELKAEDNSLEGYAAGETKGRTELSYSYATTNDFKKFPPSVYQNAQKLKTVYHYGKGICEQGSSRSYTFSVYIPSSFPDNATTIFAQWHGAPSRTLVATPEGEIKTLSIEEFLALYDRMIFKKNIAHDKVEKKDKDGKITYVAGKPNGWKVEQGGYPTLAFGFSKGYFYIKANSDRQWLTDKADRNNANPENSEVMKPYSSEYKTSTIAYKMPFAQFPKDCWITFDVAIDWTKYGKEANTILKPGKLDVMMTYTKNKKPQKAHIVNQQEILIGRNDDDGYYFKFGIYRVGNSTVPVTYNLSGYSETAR
Method: To 17 μL of reaction buffer (14 mM sodium acetate and 1.4 mM CaCl2, pH 7.0) containing 10 ng of heparin were added 3 μL of test sample along with 0.2 unit of heparinase and placed at room temperature for 15 min. Then, 25 μL of antithrombin III solution was added and allowed to react for 2 min at room temperature and added with 25 μL of factor Xa solution. In one minute, 25 μL of factor Xa substrate was added to react for 5–10 min and then terminated the reaction by adding 25 μL of glacial acetic acid. The light absorbency was measured at 410 nm. The rate of enzyme inhibition was calculated as in the following equation 1, wherein IC50 was the concentration of the inhibitor when the rate of enzyme inhibition reached 50%. Inhibition (%)=(A−C)/(A−B)×100 [Equation 1]
In the above equation 1, A represents the light absorbance of the reagent after reaction when the inhibitor was not added, B represents the light absorbance of the reagent after reaction when enzyme solution was not added, and C represents the light absorbance of the reagent after reaction when the inhibitor was added.
The heparinase used in this experiment was purchased from Sigma Co. Ltd. (U.S.A.), wherein the heparinase was isolated from Flavobacterium heparinum.

B16 melanoma cells = assay: Invasion of B16 melanoma cells (Matrigel invasion); type: cell-based; conditions: for Relative Rate of Invasion (%): control 100; for No. of Cells Invaded: control 420.7 ± 15.6
Method: MT70646 (KCTC 0916BP) against the invasion of B16 melanoma cells through the synthetic basal membranes. […]
BioCoat invasion chamber (precoated Matrigel) was swelled for 30 min by serum-free DMEM and the chamber was placed into the well of 24 well plate which contains 600 μL of HT 1080 conditioned medium. And then 450 μL of melanoma cell suspension (4.5×10^3 cells) in DMEM medium containing 0.5% albumin was added into the chamber. After adding 50 μL of test sample, the chamber was incubated for 22–24 hr at 37° C. in a 5% CO2 atmosphere. And the filter of chamber was detached and fixed with methanol. After staining the filter with 5% crystal violet and the cells on the upper surface of the filters were removed by wiping them with a cotton swab. The cells invaded through the Matrigel and filter to the lower surface were counted under a microscope.

[2] = target: T2, heparanase derived from human platelets (Homo sapiens, UniProt Q9Y251); assay: Inhibition of heparanase (3H-heparan sulfate degradation); type: biochemical; conditions: 10 ng heparanase, 30 min at 37° C., pH 5.1; read-out: IC50 against heparanase
T2 construct: 10 ng of heparanase derived from human platelets; from tissue; host or cells: human platelets
T2 sequence (Q9Y251 158-543 limits assumed): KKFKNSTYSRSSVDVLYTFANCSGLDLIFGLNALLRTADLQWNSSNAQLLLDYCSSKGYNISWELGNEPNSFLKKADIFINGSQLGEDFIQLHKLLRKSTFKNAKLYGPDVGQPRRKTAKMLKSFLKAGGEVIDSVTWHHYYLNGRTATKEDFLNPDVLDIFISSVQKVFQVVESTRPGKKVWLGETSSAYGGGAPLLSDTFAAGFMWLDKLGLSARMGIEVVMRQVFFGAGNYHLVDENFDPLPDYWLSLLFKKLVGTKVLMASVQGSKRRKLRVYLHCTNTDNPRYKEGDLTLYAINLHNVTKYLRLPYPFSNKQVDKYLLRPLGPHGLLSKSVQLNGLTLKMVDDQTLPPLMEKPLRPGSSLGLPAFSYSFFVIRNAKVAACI
T2 sequence (Q9Y251 36-109 limits assumed): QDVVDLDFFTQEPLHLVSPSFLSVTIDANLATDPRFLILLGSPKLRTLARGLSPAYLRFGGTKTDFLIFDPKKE
Excerpt: After the reaction, the reaction mixture was passed through a column filled with HRG-Sepharose beads and eluted out the degraded heparan sulfate by heparanase to measure the radioactivity.

SMILES | Physicochemical properties (comparison) (Solubility in solvents) | inhibition at 1 µg/mL [1] [%] | inhibition at 3 µg/mL [1] [%] | inhibition at 10 µg/mL [1] [%] | IC50 (heparinase) [µM] | Relative Rate of Invasion (%) (B16 melanoma cells; 1 μg/mL) | No. of Cells Invaded (B16 melanoma cells; 1 μg/mL) | Relative Rate of Invasion (%) (B16 melanoma cells; 3 μg/mL) | No. of Cells Invaded (B16 melanoma cells; 3 μg/mL) | Relative Rate of Invasion (%) (B16 melanoma cells; 10 μg/mL) | No. of Cells Invaded (B16 melanoma cells; 10 μg/mL) | inhibition at 10 µg/mL (B16 melanoma cells; Mus musculus, B16, 10 μg/mL, read-out: Inhibitory activity against invasion) [%] | IC50 (B16 melanoma cells; Mus musculus, B16, estimated from Table 4, read-out: IC50 against invasion of B16 melanoma cells) [µg/mL] | Solubility in ethanol, butanol, dimethyl sulfoxide (DMSO) (Solubility in solvents) | Solubility in water, hexane and chloroform (Solubility in solvents) | IC50 [2] [µM]
CCCCCCCCCCCCCCCc1cc(OC2OC(C(=O)OC)C(O)C(O)C2O)cc(O)c1C(=O)Oc1cc(C)c(C(=O)O)c(O)c1 (single isomer, unassigned) [CRM646-B] | almost same as in the compound CRM646-A | < 30 | 30 | 60 | 25 | 89.5 | 376.7 ± 19.7 | 36.9 | 155.3 ± 18.6 | 13.3 | 56.0 ± 8.9 | > 80 | ~2 (≈ 2.84 µM) | – | – | –
CCCCCCCCCCCCCCCc1cc(OC2OC(C(=O)O)C(O)C(O)C2O)cc(O)c1C(=O)Oc1cc(C)c(C(=O)O)c(O)c1 (centres unmarked) [CRM646-A] | – | < 30 | < 30 | 30 | 3 | 100.1 | 421.0 ± 15.6 | 91.4 | 384.4 ± 9.4 | 71.5 | 300.8 ± 10.2 | – | – | well dissolved | not dissolved easily | 10
